The record followed here is ChEMBL document CHEMBL1144327, “Carbonic anhydrase inhibitors. Inhibition of the membrane-bound human and bovine isozymes IV with sulfonamides” (Bioorg Med Chem Lett, 2005).

As usually defined, the Ki is the equilibrium dissociation constant of an inhibitor or competing ligand from its target. Lower therefore signals tighter binding.

Experiment [1] has as its target T1, Carbonic anhydrase 4 (Bos taurus, UniProt Q95323).
T1 sequence (Q95323 whole entry): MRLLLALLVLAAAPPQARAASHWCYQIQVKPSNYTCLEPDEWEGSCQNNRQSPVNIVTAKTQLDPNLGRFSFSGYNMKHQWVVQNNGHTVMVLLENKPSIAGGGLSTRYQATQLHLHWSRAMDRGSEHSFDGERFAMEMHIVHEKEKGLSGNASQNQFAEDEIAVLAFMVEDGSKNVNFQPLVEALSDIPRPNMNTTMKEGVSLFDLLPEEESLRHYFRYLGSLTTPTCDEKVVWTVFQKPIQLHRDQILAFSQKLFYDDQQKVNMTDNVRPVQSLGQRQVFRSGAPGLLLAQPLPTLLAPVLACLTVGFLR
Description: Inhibitory activity against bovine carbonic anhydrase IV (bCAIV)

The target in experiment [2] is Carbonic anhydrase 4 (Homo sapiens, UniProt P22748).
Carbonic anhydrase 4 (Homo sapiens, UniProt P22748), sequence (P22748 whole entry): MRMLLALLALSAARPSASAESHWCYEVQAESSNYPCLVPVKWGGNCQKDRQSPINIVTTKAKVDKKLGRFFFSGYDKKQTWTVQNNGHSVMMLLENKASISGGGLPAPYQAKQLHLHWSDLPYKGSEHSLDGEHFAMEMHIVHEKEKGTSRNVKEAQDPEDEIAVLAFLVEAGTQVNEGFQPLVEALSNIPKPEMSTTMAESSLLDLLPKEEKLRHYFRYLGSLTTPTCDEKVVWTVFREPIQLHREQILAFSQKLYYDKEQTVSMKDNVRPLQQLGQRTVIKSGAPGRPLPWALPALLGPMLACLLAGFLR
Description: Inhibitory activity against human carbonic anhydrase IV (hCAIV)

On to `Nc1ccc(S(=O)(=O)NCc2ccc(S(N)(=O)=O)cc2)cc1`, for which the inhibition constant (Ki) on Carbonic anhydrase 4 [1] turned out to be 50 nM; on Carbonic anhydrase 4 [2], 84 nM.
Take `Nc1ccc(S(N)(=O)=O)cc1I`: the inhibition constant Ki at Carbonic anhydrase 4 [2] came to 920 nM.
On the same count and under the same terms, the figure for `Nc1ccc(S(N)(=O)=O)cc1Br` is 96 nM; for `Nc1cccc(S(N)(=O)=O)c1` it is 7750 nM.
On Carbonic anhydrase 4 [2], `Nc1ccc(S(N)(=O)=O)cc1F` displayed an inhibition constant Ki of 910 nM.
On the same count and under the same terms, the figure for `Nc1ccc(S(N)(=O)=O)cc1Cl` is 450 nM; for `NNc1ccc(S(N)(=O)=O)cc1` it is 7700 nM.
The molecule `Nc1cc(C(F)(F)F)c(S(N)(=O)=O)cc1S(N)(=O)=O` [2,4-DISULFAMYLTRIFLUOROMETHYLANILINE] registered a Ki at Carbonic anhydrase 4 [1] of 240 nM.
With `Cc1ccc(-c2cc(C(F)(F)F)nn2-c2ccc(S(N)(=O)=O)cc2)cc1` [CELECOXIB], the inhibition constant (Ki) at Carbonic anhydrase 4 [1] was 290 nM; on Carbonic anhydrase 4 [2], 880 nM.
`NCc1ccc(S(N)(=O)=O)cc1` [MAFENIDE] returned an inhibitory constant (Ki) on Carbonic anhydrase 4 [2] of 8600 nM.
The same measure, in the same setting: the figure for `Nc1ccc(S(N)(=O)=O)cc1` [SULFANILAMIDE] is 9760 nM; for `CC1(C)O[C@@H]2[C@@H](CO[C@@]3(COS(N)(=O)=O)OC(C)(C)O[C@@H]23)O1` [TOPIRAMATE] it is 4900 nM.
